According to patent US20050008686A1, “Cochleate preparations of fragile nutrients” (priority 2003, published 2005):
In brackets after ≈: the same amount, converted by molar mass. Read-outs that look alike come from different tables or passages of the source.

Test: solubility of beta-carotene in potential solvents
Format: physicochemical
Conditions: for solubility: organic solvent or mixture
Excerpt: The present invention is based, at least in part, on the discovery that one or more solvents such as tetrahydrofuran (THF), can be employed to form an improved cochleate with fragile nutrients such as beta-carotene at desirable concentrations. Suitable solvents and solvent mixtures that can be employed in connection with the present invention and can readily be identified by a person of skill in the art employing the teachings provided herein and knowledge in the art. For example, beta-carotene was added to a variety of potential solvents, and was found not soluble in either water or DMSO, and slightly soluble in methyl pyrrolidone (less than 1 mg/ml). Heptane also was considered, but heptane is not miscible with water and thus cannot readily be employed in the formation of cochleates. […] Similarly, solvents can be identified for other fragile nutrients and lipids in accordance with the present invention.

## CC1=C(/C=C/C(C)=C/C=C/C(C)=C/C=C/C=C(C)/C=C/C=C(C)/C=C/C2=C(C)CCCC2(C)C)C(C)(C)CCC1 [beta-carotene]
Solvent methyl pyrrolidone, slightly soluble, read-out: solubility in methyl pyrrolidone
  solubility: < 1000 µg/mL
Solvent tetrahydrofuran (THF), read-out: solubility in THF
  solubility: 10000 µg/mL (≈ 18.6 mM)
Solvent DMSO
  solubility in DMSO: not soluble
Solvent water
  solubility in water: not soluble
